Measurements as given in US6433174B1, “Process for producing novel naphthyridine derivatives” (Nippon Kayaku Kabushiki Kaisha, priority 1998, dated 2002).

Tests used:
[1] = target: T1, NK-2 receptor (Rattus norvegicus, UniProt P16610); assay: NK-2 receptor binding test (125I-neurokinin A, rat duodenum membrane preparation); details: rat duodenum membranes, 125I-neurokinin A 1×10^−9 M, room temperature, 90 minutes; read-out: IC50 of the drug against radioactive neurokinin A binding
T1 construct: from tissue; host or cells: rat duodenum membrane preparation
T1 sequence (P16610 1-390): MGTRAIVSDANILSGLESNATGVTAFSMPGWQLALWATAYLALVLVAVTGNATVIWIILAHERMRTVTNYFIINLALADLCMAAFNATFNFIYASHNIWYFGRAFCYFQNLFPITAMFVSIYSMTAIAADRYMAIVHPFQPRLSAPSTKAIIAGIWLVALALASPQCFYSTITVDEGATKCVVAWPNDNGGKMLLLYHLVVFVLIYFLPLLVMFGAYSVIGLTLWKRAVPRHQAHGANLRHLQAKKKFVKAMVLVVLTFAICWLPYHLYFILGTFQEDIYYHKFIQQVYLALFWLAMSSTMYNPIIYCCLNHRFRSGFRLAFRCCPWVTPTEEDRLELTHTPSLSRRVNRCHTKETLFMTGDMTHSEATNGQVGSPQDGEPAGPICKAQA
Protocol: NK-2 Receptor Binding Test
The duodenum taken out from a Fischer-strain male rat was homogenized in a 50 mM tris-hydrochloride buffer solution containing ethylenediaminetetracetic acid (1 mM), and 48,000 g of the obtained homogenate was subjected to centrifugal sedimentation at 4° C. for 20 minutes. The produced pellets were washed thrice with 10 times as much volume of a 50 mM trishydrochloride butter solution containing KCl (300 mM) and ethylenediaminetetracetic acid (10 mM), and the obtained membrane preparation was suspended in 10 times as much volume of a 50 mM tris-hydrochloride buffer solution (pH 7.4) and kept at −80° C. till it was offered to use. The above membrane preparation (20 mg/ml) was incubated with a radioactive legand 125 I-neurokinin A (1×10^−9 M) in a 50 mM tris-hydrochloride buffer solution (pH 7.4) containing bovine serum albumin (10 mg/ml), bacitracin (40 μg/ml), leupepsin (4 μg/ml), chymostatin (50 μg/ml), antipain (1×10^−4 M) and MnCl2 (1 mM) in the presence of a drug or its solvent at room temperature for 90 minutes. The reaction solution was suction-filtered by a GE/B filter pretreated with polyethylene-imine (0.1%), and was washed with 3 ml of a 50 mM tris-hydrochloride buffer solution (pH 7.4) containing MnCl2 (1 mM), and the radioactivity in the filter was measured by a gamma counter. With the radioactivity in the presence of Nle10 eurokinin A (4-10) (3×10^−6 M) being taken as non-specific binding, the specific binding inhibition rate by the drug was given as control in the case of a solvent, and the 50% inhibition concentration (IC50) of the drug was determined from the linear regression.

[2] = target: T2, NK-2 receptor (Cavia porcellus, UniProt Q64077); assay: Inhibitory action against stricture of airway caused by NK-2 receptor stimulation and antigen inhalation; format: in vivo; details: guinea pig
T2 construct: Specimens were prepared by joining 5 slices from said trachea; from tissue; host or cells: isolated guinea pig trachea (A2); anesthetized guinea pig airway in vivo (A5)
T2 sequence (Q64077 1-402): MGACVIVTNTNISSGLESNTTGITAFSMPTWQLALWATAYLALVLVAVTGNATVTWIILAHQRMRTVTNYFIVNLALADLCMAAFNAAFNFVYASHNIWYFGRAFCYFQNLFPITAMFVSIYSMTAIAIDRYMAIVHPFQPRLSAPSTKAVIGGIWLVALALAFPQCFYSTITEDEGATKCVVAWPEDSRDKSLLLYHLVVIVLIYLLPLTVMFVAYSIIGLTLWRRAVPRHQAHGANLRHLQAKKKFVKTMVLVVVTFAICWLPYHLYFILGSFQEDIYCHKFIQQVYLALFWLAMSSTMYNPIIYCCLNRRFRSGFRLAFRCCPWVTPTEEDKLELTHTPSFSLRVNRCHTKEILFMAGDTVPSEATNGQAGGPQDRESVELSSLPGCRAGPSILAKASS
Protocol: Inhibitory Action Against Stricture of Airway
The non-treated Hartley strain male guinea pigs and the Hartley strain male guinea pigs which had been actively sensitized by subcutaneous administration of 300 mg/kg of ovalbumin 14 to 21 days ago were used. A tube was inserted into the trachea of each guinea pig anesthetized with pentobarbital, and positive pressure breathing was conducted at a rate of 60 times of breathing per minute (10 ml/kg) by an artificial breathing system. Lateral pressure of the tube in the trachea was measured as an index of stricture of airway. Spontaneous respiration was inhibited by the administration of succinylcholine. To the non-treated guinea pigs, 2 μmol of Nle10 neurokinin A (4-10)—a specific stimulant to NK-2 receptor—was intravenously injected repeatedly at intervals of 10 minutes. After the induced airway restriction reaction was stabilized, the drug was administered intravenously or perorally. 3 minutes after intravenous administration or 50 minutes after peroral or intraduodenal administration, Nle10 neurokinin A (4-10) was again intravenously injected. The inhibition rate by the drug was determined with the degree of airway restriction before drug administration as control.
15 minutes after intravenous administration of 4.6 μmol/kg of phosphoramidon to each actively sensitized guinea pig, it was forced to inhale, for 2 minutes, an aerosol of an antigen ovalbumin solution (2 mg/ml) generated by a supersonic nebulizer to induce stricture of the airway. The drug or its solvent was administered perorally 50 minutes before the antigen inhalation. 8 minutes after antigen inhalation of the solvent-administered group, the inhibition rate of the drug-administered group was determined with the degree of airway stricture of the solvent-administered group as control.

[3] = system: Mouse; assay: Toxic action in mouse, intravenous administration; format: in vivo
Description: Toxicity of the novel naphthyridine derivatives of the present invention was examined.

[4] = target: T2, NK-2 receptor; assay: Antagonistic action against NK-2 receptor: neurokinin A-induced contraction of isolated guinea pig trachea; format: cell-based; details: drug concentration 5 × 10^−9 M, neurokinin A 1×10^−9 M, 110-minute incubation, read-out: Inhibition rate of neurokinin A-induced contraction
Protocol: Antagonistic Action Against NK-2 Receptor
A Hartley-strain male guinea pig was caused to die by head contusion and blood depletion, and its trachea was extracted. Specimens were prepared by joining 5 slices from said trachea, and they were suspended with a tension of 0.5 gram-weight in a 15-ml Magunus tank containing a 37° C. Krebs-Henseleit liquid through which a mixed gas of 95% O2 and 5% CO2 had been passed. A Krebs-Henseleit liquid containing indomethacin (5×10^−6 M) was used to obviate the participation of endogenous prostaglandin. After confirming the maximum contraction of each specimen by methacholine, a drug or its solvent was added and, after 110-minute incubation, neurokinin A (1×10^−9 M) was acted thereto. Phosphoramidon (1×10^−5 M) was added for inhibiting decomposition of neurokinin A 30 minutes before the addition of neurokinin A and (±) CP-96345 (3×10^−7 M) was added for eliminating the participation of NK-1 receptor 20 minutes before the addition of neurokinin A. The contraction by neurokinin A was first determined as a ratio to the maximum contraction of each specimen, and then the inhibition rate by the drug was determined with the amount of contraction of the solvent-added specimen as control.

[5] = target: T3, NK-1 receptor (Cavia porcellus, UniProt P30547); assay: Antagonistic action against NK-1 receptor: Methyl Substance P-induced contraction of isolated guinea pig ileum; format: cell-based; details: Methyl Substance P 1×10^−9 M, 35-minute incubation, read-out: IC50 of the drug against contraction by Methyl Substance P
T3 construct: its ileum was extracted; An approximately 3 cm long specimen was prepared therefrom; from tissue; host or cells: isolated guinea pig ileum
Protocol: Antagonistic Action Against NK-1 Receptor
A Hartley strain male guinea pig was caused to die by head contusion and blood depletion, and its ileum was extracted. An approximately 3 cm long specimen was prepared therefrom, and it was suspended with a tension of 0.5 gram-weight in a 15 ml Mogunus tank containing a 37° C. Krebs-Henseleit liquid through which a mixed gas of 95% O2 and 5% CO2 had been passed. A Krebs-Henseleit liquid containing atropin (1×10^−6 M) and indomethacin (5×10^−6 M) was used to get rid of the participation of endogenous acetylcholine and prostaglandin. Methyl Substance P (1×10^−9 M), which is a specific stimulant of NK-1 receptor, was acted repeatedly at intervals of 40 minutes. After contraction by Methyl Substance P was stabilized, the drug was added in various concentrations and, after 35-minute incubation, Methyl Substance P was again acted. The contraction inhibition rate by the drug was determined with the contraction just before the addition of the drug as control, and the 50% inhibition concentration (IC50) of the drug was calculated from the linear regression.

[6] = target: T4, NK-3 receptor (Cavia porcellus, UniProt P30098); assay: Antagonistic action against NK-3 receptor: senktide-induced contraction of isolated guinea pig ileum; format: cell-based; details: senktide 1×10^−9 M, 35-minute incubation, read-out: IC50 of the drug against contraction by senktide
T4 construct: its ileum was extracted; An approximately 3 cm long specimen was prepared therefrom; from tissue; host or cells: isolated guinea pig ileum
T4 sequence (P30098 1-440): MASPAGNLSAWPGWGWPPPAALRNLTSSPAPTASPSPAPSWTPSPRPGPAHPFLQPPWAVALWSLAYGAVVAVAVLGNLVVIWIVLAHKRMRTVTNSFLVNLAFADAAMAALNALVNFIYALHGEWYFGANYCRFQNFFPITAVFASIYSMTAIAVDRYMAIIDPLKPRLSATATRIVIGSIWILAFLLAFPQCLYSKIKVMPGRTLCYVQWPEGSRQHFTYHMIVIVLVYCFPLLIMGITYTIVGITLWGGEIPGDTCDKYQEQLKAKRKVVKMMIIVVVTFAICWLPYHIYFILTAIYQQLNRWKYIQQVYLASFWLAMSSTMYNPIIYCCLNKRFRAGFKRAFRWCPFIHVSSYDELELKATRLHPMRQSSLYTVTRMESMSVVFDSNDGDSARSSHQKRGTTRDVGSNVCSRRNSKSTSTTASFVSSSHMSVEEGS
Protocol: Antagonistic Action Against NK-3 Receptor
A Hartley-strain male guinea pig was caused to die by head contusion and blood depletion, and its ileum was extracted. An approximately 3 cm long specimen was prepared therefrom, and it was suspended with a tension of 0.5 gram-weight in a 15 ml Magunus tank containing a 37° C. Kregs-Henseleit liquid through which a mixed gas of 95% O2 and 5% CO2 had been passed. A Krebs-Henseleit liquid containing atropin (1×10^−6 M) and indomethacin (5×10^−6 M) was used to obviate the participation of endogenous acetylcholine and prostaglandin. Senktide (1×10^−9 M), which is a specific stimulant of NK-3 receptor, was acted repeatedly at intervals of 50 minutes. After contraction by senktide was stabilized, the drug was added in various concentrations and, after 35-minute incubation, senktide was again acted. The contraction inhibition rate by the drug was determined with the amount of contraction just before the addition of the drug as control, and the 50% inhibition concentration (IC50) of the drug was determined from the linear regression.

T3 sequence (P30547 whole entry): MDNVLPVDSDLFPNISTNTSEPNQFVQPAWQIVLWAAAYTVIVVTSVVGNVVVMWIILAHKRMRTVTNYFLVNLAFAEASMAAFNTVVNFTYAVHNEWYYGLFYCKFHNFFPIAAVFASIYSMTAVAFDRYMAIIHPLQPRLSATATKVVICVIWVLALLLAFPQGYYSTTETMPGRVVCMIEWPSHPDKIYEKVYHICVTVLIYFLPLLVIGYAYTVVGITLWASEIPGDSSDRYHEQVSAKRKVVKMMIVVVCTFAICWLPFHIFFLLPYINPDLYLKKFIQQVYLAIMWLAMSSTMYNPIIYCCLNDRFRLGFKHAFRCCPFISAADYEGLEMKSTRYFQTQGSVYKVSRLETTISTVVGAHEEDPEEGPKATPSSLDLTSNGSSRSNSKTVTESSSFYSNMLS

Row | Structure (SMILES) | IC50 [1] | Inhibition rate (%) NK-2 receptor stimulation and antigen inhalation ([2]; 0.5 μmol/kg, Intravenous) | Inhibition rate (%) NK-2 receptor stimulation and antigen inhalation ([2]; 8 μmol/kg, Peroral) | Toxicity by intravenous administration of the drug ([3]; 65 μmol/kg intravenous) | inhibition at 0.005 µM [4] | IC50 [5] | IC50 [6] | Inhibition rate (%) NK-2 receptor stimulation and antigen inhalation ([2]; 1 μmol/kg, Intravenous) | Inhibition rate (%) NK-2 receptor stimulation and antigen inhalation ([2]; 10 μmol/kg, Peroral) | Toxicity by intravenous administration of the drug ([3]; 22 μmol/kg intravenous)
1 | CN(CC(CCN1CCc2nc3ccccc3c(-c3ccccc3)c2C1)c1ccc(Cl)c(Cl)c1)C(=O)c1ccccc1 (stereo not drawn) [(3)-b] | 0.07 µM | 70.0% | – | – | – | – | – | – | – | –
2 | CC(=O)Nc1c2c(nc3ccccc13)CCN(CCC(CN(C)C(=O)c1ccccc1)c1ccc(Cl)c(Cl)c1)C2 (stereo not drawn) [(6)-b] | 0.018 µM | 100.0% | 81.5% | None | – | – | – | – | – | –
3 | CN(CC(CCN1CCc2nc3c(cc2C1)CCCC3)c1ccc(Cl)c(Cl)c1)C(=O)c1ccccc1 (stereo not drawn) [(2)-b] | 0.056 µM | – | 67.2% | None | 89.1% | 0.47 µM | 0.18 µM | 94.2% | 54.1% | None
